SMILES strings stand for the structures.

In this test the test system is mouse glioma GL261 cells. Put plainly: Mouse glioma GL261 cell allograft model, survival. The test is classed as in vivo. As to conditions: female C57BL/6 albino mice, GL261 cells in the striatum; vehicle 24 days. The protocol: Mouse glioma GL261 cells were injected stereotactically into the striatum of female C57BL/6 albino mice (n=5-7 per cohort) followed by vehicle, TG02, TMZ, and TG02+TMZ combination treatment. A median overall survival of 24, 24.5, 27.5, and 32 days, respectively was observed. The result was analyzed using Logrank test for trend in GraphPad Prism software (Chi square=9.063, df=1, P value=0.0026**). The turmor burden was determined by bioluminescence imaging (BLI) taken using the PerkinElmer IVIS® Spectrum. The intensity of BLI was calculated and normalized to the initial intensity at day 5.

Turning to `Cn1nnc2c(C(N)=O)ncn2c1=O` [TMZ, temozolomide, reference compound], the median overall survival turned out to be 27.5 days.

The values are drawn from US11865116B2, “Treatment of cancer with TG02” (Cothera Bioscience, Inc., priority 2016, dated 2024).
